The source of these data is publication PMC6679371, “Synthesis and Evaluation of Novel Pyrazole Ethandiamide Compounds as Inhibitors of Human THP-1 Monocytic Cell Neurotoxicity” (Cells, 2019).

In data set [1] the test system is immune-stimulated human THP-1 monocytic cells (toxicity toward SH-SY5Y neuronal cells). Description: Anti-neurotoxic activity: supernatants of compound-treated stimulated THP-1 cells transferred to SH-SY5Y cells (MTT assay). In kind it is cell-based. The settings on record: for IC50: Homo sapiens, estimated from Figure 4, read-out: IC50 for reducing toxic effect of stimulated THP-1 supernatants on SH-SY5Y cells. As to the method:
(§1) The MTT assay was performed as described by Mosmann and by Hansen et al.. Cell viability was determined by adding MTT to the cell cultures to reach a final concentration of 500 μg mL^−1. Following one h incubation at 37 °C, the dark purple crystals formed by viable cells were dissolved by adding to the wells an equal volume of the extraction buffer containing 20% sodium dodecyl sulfate and 50% N,N-dimethylformamide, pH 4.7. After overnight incubation at 37 °C, 100 μL aliquots of MTT solutions were transferred to a 96-well plate, and a FLUOstar Omega platereader (BMG Labtech, Offenburg, Germany) was used to measure the optical densities at 570 nm. Cell viability in various samples was calculated as percent of the optical density value obtained with cells incubated in fresh cell culture medium only.
(§2) The anti-neurotoxic activity of the compounds was evaluated using a method described previously. Human monocytic THP-1 cells were transferred to 24-well plates in 800 µL aliquots of 5 × 10^5 cells mL^−1 per well. The cells were pre-incubated with varying concentrations of pyrazole derivatives or their DMSO vehicle solution for 15 min before stimulation with a combination of lipopolysaccharide (LPS, 0.5 µg mL^−1) and human interferon-γ (IFN-γ, 150 U mL^−1). […] After 24 h incubation, 400 µL of supernatants from THP-1 cells was transferred to SH-SY5Y cells (seeded 24 h earlier in 24-well plates; 400 µL of 2 × 10^5 cells mL^−1). The viability of THP-1 cells was measured by the MTT assay immediately after the transfer of the supernatants. The effects of THP-1 cell supernatants on SH-SY5Y neuronal cell viability were measured by the MTT assay after 72 h incubation. […] The concentrations of stimuli and incubation times of THP-1 cells with the stimuli were selected in preliminary experiments so that significant partial killing of SH-SY5Y cells was achieved (20–30% viable cells left), which could be a result of the combined action of cytotoxins secreted by THP-1 cells and depletion of nutrients from the cell culture medium by the stimulated THP-1 cells.

Data set [2] relates to human PC-3 prostate cancer cells. The experiment in a line: Cytotoxicity of pyrazole derivatives to PC-3 cells (MTT assay). The data set is classed as cell-based. The settings on record: 100 μM (highest concentration tested), 48 h. As to the method: as §1
PC-3 prostate cancer cells were transferred to 24-well plates in 500 µL aliquots of 1.5 × 10^5 cells mL^−1 per well. Varying concentrations of the pyrazole derivatives or the 0.5% DMSO vehicle were added to the cells. After 48 h incubation, cell viability was measured by using the MTT assay.
A general note: Tetrazolium assays rely on reduction of a dye to a coloured formazan, in cell work by metabolically active cells.

For data set [3], the system named is SH-SY5Y cells. Description: Neuroprotective activity: compounds added directly to SH-SY5Y cells with stimulated THP-1 supernatants (MTT assay). In kind it is cell-based, human. The procedure: as §1
SH-SY5Y cells were seeded into 24-well plates (400 µL at 2 × 10^5 cells mL^−1). After 24 h incubation, the cell culture medium was replaced with 400 µL of supernatants from THP-1 cells that had been stimulated for 24 h with LPS plus IFN-γ, as described in 2.6. Varying concentrations of the compounds or the DMSO vehicle solution were added directly to SH-SY5Y cells at the time of the supernatant transfer. The viability of SH-SY5Y cells was measured by the MTT assay 72 h later.

Data set [4] relates to stimulated human monocytic THP-1 cells. Description: Viability of LPS plus IFN-γ stimulated THP-1 cells (MTT assay). The settings on record: 1–100 μM, added 15 min before LPS plus IFN-γ, 24 h. The data set is classed as cell-based. The procedure:
as §1, §2

Data set [5] has as its system SH-SY5Y cells. Further details: method as in PMID 20609589. The following applies: earlier report; cited from earlier work.

Structures are written as SMILES. “Also recorded” adds a separate entry of the source. Where only a bound is given, the exact number is not on record here.

Consider `C=CCNC(=O)C(=O)Nc1c(C#N)cnn1-c1ccccc1` [2d], for which the melting point was in the range of 108 to 110 °C. The “change in SH-SY5Y cell viability” value in data set [1] (100 μM, supernatant transfer from treated THP-1 cells, 72 h) is listed as “small but significant decrease in SH-SY5Y cell viability; also recorded: small yet significant reduction of SH-SY5Y cell viability”. The “protective (anti-neurotoxic) effect” value in data set [1] (1–100 μM) is “no protective effect”. Further, in data set [2], the “change in PC-3 cell viability” value is given as “small yet significant increase in cell viability”. For the same compound, the “change in SH-SY5Y cell viability, compound added directly” value in the data set with SH-SY5Y cells [3] (100 μM, 72 h) was “small but significant decrease in SH-SY5Y cell viability”. For the same compound, the “toxicity to stimulated THP-1 cells (cell viability, MTT)” value (“toxicity to stimulated THP-1 cells” for short) in data set [4] is on record as “None of these six derivatives were toxic”.

As for `N#Cc1cnn(-c2ccccc2)c1NC(=O)C(=O)Nc1c(C#N)cnn1-c1ccccc1` [compound 1], the direct neuroprotective activity result with SH-SY5Y cells [5] was “showed this effect”.

On to `N#Cc1cnn(-c2ccccc2)c1NC(=O)C(=O)Nc1ccc(O)cc1` [2f], for which the melting point lay in the range of 237 to 239 °C.

Turning to `CN(C)CCOC(=O)C(=O)Nc1c(C#N)cnn1-c1ccccc1` [compound 3], the melting point fell in the range of 139 to 141 °C. Also, in data set [1], the IC50 is 10 to 50 µM. Moreover, in the data set with SH-SY5Y cells [3] (1–100 μM, added at the time of supernatant transfer), the “direct neuroprotective effect on SH-SY5Y cells” value is listed as “neuroprotective effect”. Moreover, the viability at 100 µM with SH-SY5Y cells [3] (Homo sapiens, SH-SY5Y, 100 μM, 72 h, without compound 20–30%) is greater than 40%. Besides, the “toxicity to stimulated THP-1 cells” value in data set [4] is “None of these six derivatives were toxic”.

For `CN(C)C(=O)C(=O)Nc1c(C#N)cnn1-c1ccccc1` [2c], the melting point was 250 to 253 °C. Besides, the concentration for half-maximal inhibition (IC50) in data set [1] is 10 to 50 µM. Also, the “toxicity to stimulated THP-1 cells” value in data set [4] is on record as “None of these six derivatives were toxic”.

In the case of `N#Cc1cnn(-c2ccccc2)c1NC(=O)C(=O)NCCCCCCCCCN` [2a], the melting point lay in the range of 108 to 110 °C. For the same compound, the concentration for half-maximal inhibition (IC50) in data set [1] is 50 to 100 µM. The “concentrations at which the protective effect was statistically significant” value in data set [1] (tested 1–100 μM, Dunnett's post-hoc test) worked out at 100 µM. For the same compound, the “toxicity to stimulated THP-1 cells” value in data set [4] is given as “None of these six derivatives were toxic”.

For the compound `N#Cc1cnn(-c2ccccc2)c1NC(=O)C(=O)Nc1ccc(N)cc1` [2e], the melting point was 258 to 261 °C. Besides, in data set [1], the IC50 is 10 to 50 µM. Besides, the “toxicity to stimulated THP-1 cells” value in data set [4] is “None of these six derivatives were toxic”.

Consider `N#Cc1cnn(-c2ccccc2)c1NC(=O)C(=O)N(C1CCCCC1)C1CCCCC1` [2b], for which the melting point lay in the range of 188 to 190 °C. Besides, in data set [1], the IC50 is 10 to 50 µM. Besides, the “toxicity to stimulated THP-1 cells” value in data set [4] is “None of these six derivatives were toxic”.

A word on the melting point: it is the temperature, or range, at which the solid turns liquid. Broadly, the IC50 is the concentration needed to halve the response being measured. The viability is a read-out of living cells in per cent, often relative to untreated cells.
